Source: ChEMBL document CHEMBL2203205 (Eur J Med Chem, 2012)
pIC50: −log10 of the molar value.

Assays:
Nitric oxide synthase 3 = Nitric oxide synthase 3 (Homo sapiens, UniProt P29474); experiment: Inhibition of recombinant human eNOS expressed in baculovirus-infected Sf9 cells assessed as conversion of [3H]-larginine to [3H]-L-citrulline preincubated for 15 mins measured after 45 mins by liquid scintillation counting
Nitric oxide synthase 1 = Nitric oxide synthase 1 (Homo sapiens, UniProt P29475); experiment: Inhibition of recombinant human nNOS expressed in baculovirus-infected Sf9 cells assessed as conversion of [3H]-larginine to [3H]-L-citrulline preincubated for 15 mins measured after 45 mins by liquid scintillation counting
[1] = target: Nitric oxide synthase, inducible (Homo sapiens, UniProt P35228); experiment: Inhibition of recombinant human iNOS expressed in baculovirus-infected Sf9 cells assessed as conversion of [3H]-larginine to [3H]-L-citrulline preincubated for 15 mins measured after 45 mins by liquid scintillation counting
[2] = target: Substance-P receptor (Homo sapiens) (UniProt P25103); conditions: U-373MG ATCC
Sequence of Substance-P receptor (Homo sapiens) (P25103 whole entry): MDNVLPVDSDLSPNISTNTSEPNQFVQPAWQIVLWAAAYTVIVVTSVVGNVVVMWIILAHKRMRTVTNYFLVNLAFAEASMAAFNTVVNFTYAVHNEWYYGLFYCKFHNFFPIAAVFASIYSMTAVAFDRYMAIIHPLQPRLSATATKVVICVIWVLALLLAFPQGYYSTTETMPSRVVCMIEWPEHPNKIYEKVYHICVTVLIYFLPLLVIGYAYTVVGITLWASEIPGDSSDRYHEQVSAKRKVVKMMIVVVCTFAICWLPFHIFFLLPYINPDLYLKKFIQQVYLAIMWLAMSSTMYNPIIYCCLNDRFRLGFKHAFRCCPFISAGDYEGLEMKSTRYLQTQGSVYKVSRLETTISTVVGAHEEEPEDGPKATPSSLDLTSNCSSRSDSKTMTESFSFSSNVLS
Description: Displacement of [125I]BH-SP from NK1 receptor in human U-373MG cells at 10 uM after 60 mins

Sequence of Nitric oxide synthase 3 (P29474 whole entry, looked up): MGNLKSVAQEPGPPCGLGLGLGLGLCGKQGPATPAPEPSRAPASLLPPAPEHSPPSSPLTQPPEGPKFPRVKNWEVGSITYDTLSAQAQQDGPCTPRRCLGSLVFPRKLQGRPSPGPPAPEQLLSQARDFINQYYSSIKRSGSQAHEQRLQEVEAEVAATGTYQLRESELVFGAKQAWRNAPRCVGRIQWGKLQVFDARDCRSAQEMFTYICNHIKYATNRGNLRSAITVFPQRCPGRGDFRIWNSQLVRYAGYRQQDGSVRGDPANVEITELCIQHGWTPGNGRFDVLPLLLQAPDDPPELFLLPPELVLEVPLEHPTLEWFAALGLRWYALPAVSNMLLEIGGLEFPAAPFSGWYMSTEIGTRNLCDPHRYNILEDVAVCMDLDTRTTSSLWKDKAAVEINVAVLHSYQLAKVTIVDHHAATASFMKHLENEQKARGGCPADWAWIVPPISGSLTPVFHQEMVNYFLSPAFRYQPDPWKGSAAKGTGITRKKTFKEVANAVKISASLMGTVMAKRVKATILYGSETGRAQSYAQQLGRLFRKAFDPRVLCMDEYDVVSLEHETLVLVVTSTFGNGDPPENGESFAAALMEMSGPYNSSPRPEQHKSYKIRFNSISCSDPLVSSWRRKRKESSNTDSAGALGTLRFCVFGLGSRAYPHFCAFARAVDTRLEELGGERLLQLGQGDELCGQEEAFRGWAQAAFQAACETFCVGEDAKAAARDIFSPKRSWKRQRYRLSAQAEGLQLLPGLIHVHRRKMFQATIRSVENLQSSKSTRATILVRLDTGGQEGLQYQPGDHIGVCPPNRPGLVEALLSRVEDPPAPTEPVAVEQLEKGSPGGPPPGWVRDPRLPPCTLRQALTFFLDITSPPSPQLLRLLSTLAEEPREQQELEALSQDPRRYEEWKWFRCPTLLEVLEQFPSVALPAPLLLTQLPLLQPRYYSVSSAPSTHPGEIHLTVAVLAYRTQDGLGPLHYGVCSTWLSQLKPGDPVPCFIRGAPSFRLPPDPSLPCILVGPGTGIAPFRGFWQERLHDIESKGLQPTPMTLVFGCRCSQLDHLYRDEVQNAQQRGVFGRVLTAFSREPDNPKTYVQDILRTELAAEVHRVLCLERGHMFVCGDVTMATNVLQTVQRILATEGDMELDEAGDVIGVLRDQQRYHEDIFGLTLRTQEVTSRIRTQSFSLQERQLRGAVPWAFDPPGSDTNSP
Sequence of Nitric oxide synthase 1 (P29475 whole entry): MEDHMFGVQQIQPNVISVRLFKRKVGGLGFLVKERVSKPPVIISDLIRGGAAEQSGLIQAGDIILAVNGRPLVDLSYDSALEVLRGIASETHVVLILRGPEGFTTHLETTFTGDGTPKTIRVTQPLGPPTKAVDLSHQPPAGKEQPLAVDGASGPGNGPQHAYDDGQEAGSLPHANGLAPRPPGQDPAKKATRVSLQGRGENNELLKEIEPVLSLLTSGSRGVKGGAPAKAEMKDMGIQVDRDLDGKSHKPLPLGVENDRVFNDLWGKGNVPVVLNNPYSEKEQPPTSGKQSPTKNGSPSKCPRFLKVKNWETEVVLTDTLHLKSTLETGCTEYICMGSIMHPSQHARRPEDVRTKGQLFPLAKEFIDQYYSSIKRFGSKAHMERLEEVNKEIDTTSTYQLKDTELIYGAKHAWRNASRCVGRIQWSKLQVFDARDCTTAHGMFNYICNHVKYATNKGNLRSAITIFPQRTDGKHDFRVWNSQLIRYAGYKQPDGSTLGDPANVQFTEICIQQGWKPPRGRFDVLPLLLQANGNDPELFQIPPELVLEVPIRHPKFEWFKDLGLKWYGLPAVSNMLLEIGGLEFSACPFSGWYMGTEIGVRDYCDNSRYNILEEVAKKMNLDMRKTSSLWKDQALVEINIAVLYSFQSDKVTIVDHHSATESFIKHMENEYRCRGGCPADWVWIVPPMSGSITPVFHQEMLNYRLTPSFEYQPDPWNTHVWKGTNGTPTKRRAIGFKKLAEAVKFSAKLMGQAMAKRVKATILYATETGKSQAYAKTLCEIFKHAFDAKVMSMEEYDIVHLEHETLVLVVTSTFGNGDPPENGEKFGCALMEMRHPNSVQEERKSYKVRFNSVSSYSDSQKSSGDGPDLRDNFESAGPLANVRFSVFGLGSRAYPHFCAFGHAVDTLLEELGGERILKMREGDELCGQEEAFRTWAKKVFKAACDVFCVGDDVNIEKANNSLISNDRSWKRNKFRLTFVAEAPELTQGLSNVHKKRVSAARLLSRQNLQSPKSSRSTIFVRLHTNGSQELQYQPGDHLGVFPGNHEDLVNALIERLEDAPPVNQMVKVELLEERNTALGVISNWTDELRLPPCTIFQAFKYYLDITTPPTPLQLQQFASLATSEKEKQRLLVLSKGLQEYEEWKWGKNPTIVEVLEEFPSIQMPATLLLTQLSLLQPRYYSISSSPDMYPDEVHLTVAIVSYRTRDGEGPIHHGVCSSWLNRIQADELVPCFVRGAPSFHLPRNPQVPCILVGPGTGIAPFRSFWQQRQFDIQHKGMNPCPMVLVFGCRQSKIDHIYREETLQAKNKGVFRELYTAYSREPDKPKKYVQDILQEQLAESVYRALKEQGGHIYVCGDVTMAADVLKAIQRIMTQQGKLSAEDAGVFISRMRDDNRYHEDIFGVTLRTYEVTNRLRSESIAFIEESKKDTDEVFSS
Sequence of Nitric oxide synthase, inducible (P35228 whole entry, looked up): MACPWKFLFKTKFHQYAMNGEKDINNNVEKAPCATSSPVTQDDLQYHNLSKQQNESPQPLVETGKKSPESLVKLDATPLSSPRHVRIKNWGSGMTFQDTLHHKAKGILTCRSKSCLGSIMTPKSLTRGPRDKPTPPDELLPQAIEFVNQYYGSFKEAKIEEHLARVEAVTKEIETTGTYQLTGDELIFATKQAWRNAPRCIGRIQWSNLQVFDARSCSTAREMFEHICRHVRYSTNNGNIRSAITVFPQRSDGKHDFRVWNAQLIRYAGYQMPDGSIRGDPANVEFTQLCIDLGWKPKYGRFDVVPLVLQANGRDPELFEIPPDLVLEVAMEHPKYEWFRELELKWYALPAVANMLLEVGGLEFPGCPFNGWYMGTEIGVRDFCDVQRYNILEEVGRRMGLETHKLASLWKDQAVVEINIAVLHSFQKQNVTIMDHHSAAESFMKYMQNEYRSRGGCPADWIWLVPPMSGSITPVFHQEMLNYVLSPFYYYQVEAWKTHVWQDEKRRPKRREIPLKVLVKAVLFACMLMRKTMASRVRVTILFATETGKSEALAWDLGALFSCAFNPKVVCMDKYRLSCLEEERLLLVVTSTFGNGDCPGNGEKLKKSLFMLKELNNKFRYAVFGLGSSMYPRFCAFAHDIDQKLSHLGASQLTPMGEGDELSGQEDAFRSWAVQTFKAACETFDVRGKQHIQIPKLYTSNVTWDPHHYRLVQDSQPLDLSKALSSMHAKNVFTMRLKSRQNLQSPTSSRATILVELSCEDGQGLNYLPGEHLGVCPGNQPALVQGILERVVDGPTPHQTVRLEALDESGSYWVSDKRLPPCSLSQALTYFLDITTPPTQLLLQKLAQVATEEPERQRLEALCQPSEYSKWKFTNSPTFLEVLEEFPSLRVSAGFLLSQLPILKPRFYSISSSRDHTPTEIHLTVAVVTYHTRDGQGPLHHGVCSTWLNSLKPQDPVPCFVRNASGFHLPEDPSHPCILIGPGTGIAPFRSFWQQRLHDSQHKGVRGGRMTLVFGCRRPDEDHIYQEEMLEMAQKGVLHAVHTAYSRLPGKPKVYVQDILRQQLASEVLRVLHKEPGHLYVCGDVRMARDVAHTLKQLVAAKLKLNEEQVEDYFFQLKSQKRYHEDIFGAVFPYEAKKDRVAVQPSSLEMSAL

pIC50 (Nitric oxide synthase 3) | pIC50 (Nitric oxide synthase 1) | pIC50 [1] | inhibition [2] [%] | Compound
4.44 | 6.43 | 5.32 |  | CC1CC(N2CCc3cc(NC(=N)c4cccs4)ccc32)CCN1 (trans isomer)
4.41 | 6.80 | 5.80 |  | N=C(Nc1ccc2c(c1)CCN2C1CCN(CCO)CC1)c1cccs1
 |  |  | 12 | N=C(Nc1ccc2c(c1)CCN2C1CCNCC1)c1cccs1 [listing 1 of 2 here]
 | 7.00 | 5.31 |  | CNC1CCC(N2CCc3cc(NC(=N)c4cccs4)ccc32)CC1 (trans isomer)
4.39 | 6.96 | 3.38 |  | N=C(Nc1ccc2c(c1)CCN2C1CCNCC1)c1cccs1 [listing 2 of 2 here]

The next lines start with the compound.

Compound | pIC50 (Nitric oxide synthase 3) | pIC50 (Nitric oxide synthase 1) | pIC50 [1] | inhibition [2] [%]
CN1CCC(N2CCc3cc(NC(=N)c4cccs4)ccc32)CC1 | 4.24 | 6.70 | 5.33 | 
CNC1CCC(N2CCc3cc(NC(=N)c4cccs4)ccc32)CC1 (cis isomer) |  | 6.70 | 5.39 | 
N=C(Nc1ccc2c(c1)CCN2CCNCCO)c1cccs1 | 5.00 | 6.46 |  | 
N=C(Nc1ccc2c(c1)CCN2CCN1CCCC1)c1cccs1 | 4.43 | 6.92 | 6.39 | 
N=C(Nc1ccc2c(c1)CCN2C(=O)CN1CCCC1)c1cccs1 | 4.98 | 6.21 | 6.11 | 
CN(C)CCN1CCc2cc(NC(=N)c3cccs3)ccc21 | 4.94 | 7.40 | 5.39 | 
CC1CC(N2CCc3cc(NC(=N)c4cccs4)ccc32)CCN1 (stereo in doubt) | 4.27 | 6.15 | 5.96 | 
N=C(Nc1ccc2c(c1)CCN2C1CCCNC1)c1cccs1 (racemic) | 4.03 | 6.48 | 4.28 | 
CC1CC(N2CCc3cc(NC(=N)c4cccs4)ccc32)CCN1 (single isomer, unassigned; (+)) | 4.29 | 6.04 | 5.74 | 
CC1CC(N2CCc3cc(NC(=N)c4cccs4)ccc32)CCN1 (cis isomer) | 3.91 | 6.16 | 5.93 | 
